In patent publication US20240246960A1 (adMare Therapeutics Society, priority 2021, published 2024):
Read-outs that look alike come from different tables or passages of the source.

Tests used:
[1] = molecular target: T1, DNA-PK (Homo sapiens, UniProt P78527); test: DNA-PK Assay for Biochemical Enzymatic Inhibition (ADP Glo Kinase assay)
T1 construct: purchased Invitrogen PR9107A
Protocol: A biochemical assay was performed to identify IC50 values against DNA-PK activity in a two-step reaction with a kinase reaction followed by ADP Glo™ Kinase assay Kit (Promega V9102).
Three-fold serial dilutions of compounds in DMSO were prepared in kinase assay buffer (50 mM HEPES pH 7.5, 20 mM MgCl2, 100 mM KCl, 50 μM DTT, 10 μg/ml calf thymus DNA, 0.01% Tween 20). Kinase assay buffer was used to prepare compound treatments to 0.02% DMSO (dimethyl sulphoxide) content. DMSO controls were prepared to produce a maximum and minimum luminescence signal for normalization. Substrate (Anaspec, AS-60210-5) and ATP (Promega V9102) and ATP mix was prepared by dilution in kinase assay buffer for 434.4 μM and 64.4 μM final assay concentrations, respectively. Compounds and control were added to 25 ng DNA-PK enzyme (Invitrogen, PR9107A) diluted in kinase buffer in assay plate (Corning 267459) and incubated for 15 minutes at room temperature prior to addition of substrate and ATP mix.
Throughout the assay, each time a reagent was added to the microplate, it was centrifuged for 1 minute at 1300 rcf. All reagents were added, and incubations carried out at room temperature. The reaction was then incubated for 60 minutes. ADP-ATP standards at 0, 4, 10, 40, 80, and 100% ADP (prepared as specified in the ADP Glo™ Kinase assay kit) were also added to the microplate at a volume equal to the total kinase reaction. The ADP Glo™ Kinase Assay kit was then used to quantify DNA-PK activity: following the 60-minute incubation, a 1:1 volume of ADP Glo reagent was added to all wells, then following a further 45-minute incubation, a 1:1 volume of Kinase Detection Reagent was added to all wells. After this two-step assay, plates were incubated in a Synergy-Neo2 plate reader for 30 minutes with gentle shaking, followed by endpoint luminescent read Luminescence data was normalized by subtracting the background signal and expressing all background-adjusted values as a percentage of the average maximum signal. The data was then expressed as percent inhibition by subtracting from 100% (i.e. maximum luminescent signal will be 0% inhibition) and the resulting data plotted against ten concentration points on a logarithmic scale, using GraphPad Prism. Non-linear regression analysis was performed on each concentration response curve and the log [inhibitor] vs response—variable slope (four parameters) equation was selected to generate IC50 values.

[2] = molecular target: T2, DNA-PK phosphorylation at Serine 2056 (Homo sapiens, UniProt P78527); test: Cellular Assay for Inhibition of DNA-PK Phosphorylation at Serine 2056 (FaDu cells, neocarzinostatin, sandwich ELISA); type: cell-based
T2 construct: host or cells: FaDu
Procedure, shortened: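 Readout was pSer2056 and total DNA-PK, measured by sandwich ELISA on protein-normalized lysates. Prior to lysis, compound was applied to FaDu cells for 1 h (0.3% DMSO), followed by 2 h of 1 μg/mL neocarzinostatin. IC50 values were fitted from log concentration versus % inhibition normalized to DMSO and NCS controls.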

[3] = molecular target: T3, pDNA-PK ser2056 induction in HCT116 spheroids (Homo sapiens, UniProt P78527); test: Multicellular tumour spheroid + radiation, pDNA-PK inhibition, HCT116; type: cell-based; conditions: 20 Gy
T3 construct: endogenous in cells; host or cells: HCT116 multicellular tumour spheroids
Protocol: Multicellular tumour spheroids determination of compound inhibition of pDNA-PK induction following radiation. Tumour spheroids were grown to approximately 0.5 mm in diameter and irradiated with 20 Gy in combination with inhibitor test compounds to determine their potency. Inhibitor concentration for 50% reduction in pDNA-PK induction (IC50) was determined via immunohistochemical staining in spheroid cryosections taken 2 hours following radiation.
Spheroid, Cell Line: […], Immunohistochemical endpoint, pDNA-PK inhibition, EC50 in μm.
(§1) Spheroid+radiation pDNA-PK. Radiation: 20 Gy. Drug: serial dilution 5 or 10 μM down to 3.5 nM (11 wells). Spheroids: 3-6 spheroids per well (300-500 μm diameter). 20% O2 and 5% CO2. 96 well plate format.
Protocol: pre-incubate 1 hours with drug, irradiate with 20 Gy, post-incubate 2 hours with drug, freeze and cryosection ×3 replicates.
Endpoint: fluorescent immunostin pDNA-PK ser2056 and image on microscope.
Analysis: determine EC50 concentration that decreases pDNA-PK induction by 50% after radiation.
Multicellular tumour spheroids determination of compound inhibition of pDNA-PK induction following radiation. Tumour spheroids were grown to approximately 0.5 mm in diameter and irradiated with 20 Gy in combination with inhibitor test compounds to determine their potency. Inhibitor concentration for 50% reduction in pDNA-PK induction (IC50) was determined via immunohistochemical staining in spheroid cryosections taken 2 hours following radiation. For cell survival endpoint 8 Gy radiation was used and 3 hours following radiation spheroids were dissociated, counted and plated for colony forming endpoint.
as §1, with “format. Endpoint: fluorescent immunostain pDNA-PK ser2056 and image on microscope. Analysis: determine EC50 concentrations that decreases pDNA-PK induction […] after irradiation.” for “format.”
Multicellular tumour spheroids were used to determine potency of test compounds in a 3D tissue environment using inhibition of pDNA-PK induction following radiation or cell survival as the endpoint. For the pDNA-PK endpoint HCT116 or FaDU tumour spheroids were grown to approximately 0.5 mm in diameter and irradiated with 20 Gy in combination with inhibitor test compounds to determine their potency. Experiments were carried out in 96 well plates containing 0.7 mls of MEM media containing 10% FBS and 10 mM glucose under 20% O2 & 5% CO2 at 37° C. Following dilution of compounds 1:1000 from DMSO stocks, compounds were serially diluted from 10 μM down to 3.5 nM and 5-10 spheroids added. 96 well plates were constantly stirred to avoid spheroids settling during the course of the experiment. The inhibitor concentration for 50% reduction in pDNA-PK induction (EC50) was determined via immunohistochemical staining in spheroid cryosections taken 2 hours following radiation using anti-pDNA-PK (ser 2056) and fixed immediately in formalin following sectioning. For cell survival endpoint 8 Gy radiation was used and, 3 hours following radiation, spheroids were dissociated, counted and plated for colony forming endpoint. Data presented in the table compound potency as EC50 [μM].

[4] = Example 7, spheroid, cell line HCT115 [sic], 20% O2, read-out: EC50 (pDNA-PK inhibition, immunohistochemical endpoint)
[5] = Example 8, spheroid, read-out: Cell line: HCT116 Immunohistochemical endpoint pDNA-PK inhibition EC50
[6] = Example 9 Study 2, 20% O2, read-out: Spheroid Cell line: HCT116 Immunohistochemical endpoint pDNA-PK inhibition EC50

SMILES	IC50 ([1]; Table 1)	IC50 ([2]; Table 1)	EC50 [3, 4]	EC50 [3, 5]	EC50 [3, 6]	IC50 ([1]; Table 2)	IC50 ([2]; Table 2)
Cn1ccc(N[C@H]2CC[C@@H](Oc3nc(N4CCOCC4)cc4ncccc34)CC2)n1 [Compound 30, 1-methyl-N-((1s,4s)-4-((7-morpholino-1,6-naphthyridin-5-yl)oxy)cyclohexyl)-1H-pyrazol-3-amine]	1 to 10 nM	100 to 1000 nM	10000 to 100000 nM	–	10000 to 100000 nM	–	–
CC(C)c1cnc(N[C@H]2CC[C@@H](Oc3nc(N4CCOCC4)cc4ncccc34)CC2)nc1 [Compound 33, 5-isopropyl-N-((1s,4s)-4-((7-morpholino-1,6-naphthyridin-5-yl)oxy)cyclohexyl)pyrimidin-2-amine]	1 to 10 nM	< 100 nM	1000 to 10000 nM	–	1000 to 10000 nM	–	–
Cc1nccnc1N[C@H]1CC[C@@H](Oc2nc(N3CCOCC3)cc3ncccc23)CC1 [Compound 36, 3-methyl-N-((1s,4s)-4-((7-morpholino-1,6-naphthyridin-5-yl)oxy)cyclohexyl)pyrazin-2-amine]	0.5 to 1 nM	100 to 1000 nM	1000 to 10000 nM	–	1000 to 10000 nM	–	–
Cc1nccc(N[C@H]2CC[C@@H](Oc3nc(N4CCOCC4)cc4ncccc34)CC2)n1 [Compound 37, 2-methyl-N-((1s,4s)-4-((7-morpholino-1,6-naphthyridin-5-yl)oxy)cyclohexyl)pyrimidin-4-amine]	< 0.5 nM	100 to 1000 nM	–	–	–	–	–
COc1nccnc1N[C@H]1CC[C@@H](Oc2nc(N3CCOCC3)cc3ncccc23)CC1 [Compound 39, 3-methoxy-N-((1s,4s)-4-((7-morpholino-1,6-naphthyridin-5-yl)oxy)cyclohexyl)pyrazin-2-amine]	< 0.5 nM	100 to 1000 nM	1000 to 10000 nM	–	1000 to 10000 nM	–	–
c1ccc(CN[C@H]2CC[C@@H](Oc3nc(N4CCOCC4)cc4ncccc34)CC2)cc1 [Compound 155, (1s,4s)-N-benzyl-4-((7-morpholino-1,6-naphthyridin-5-yl)oxy)cyclohexan-1-amine]	10 to 150 nM	10000 to 30000 nM	–	–	–	–	–
CN(c1cnc2cc(N3CCOCC3)nc(O[C@H]3CC[C@@H](N(C)c4ncccn4)CC3)c2c1)S(C)(=O)=O [Compound 199, N-methyl-N-(5-(((1s,4s)-4-(methyl(pyrimidin-2-yl)amino)cyclohexyl)oxy)-7-morpholino-1,6-naphthyridin-3-yl)methanesulfonamide]	10 to 150 nM	–	–	–	–	–	–

The next lines start with the values.

IC50 ([1]; Table 1)	IC50 ([2]; Table 1)	EC50 [3, 4]	EC50 [3, 5]	EC50 [3, 6]	IC50 ([1]; Table 2)	IC50 ([2]; Table 2)	SMILES
1 to 10 nM	100 to 1000 nM	–	–	–	–	–	FC(F)(F)c1ccnn1[C@H]1CC[C@@H](Oc2nc(N3CCOCC3)cc3ncccc23)CC1 [Compound 17d, 4-(5-(((1s,4s)-4-(5-(trifluoromethyl)-1H-pyrazol-1-yl)cyclohexyl)oxy)-1,6-naphthyridin-7-yl)morpholine]
1 to 10 nM	100 to 1000 nM	1000 to 10000 nM	1000 to 10000 nM	–	–	–	Cc1cn([C@H]2CC[C@@H](Oc3nc(N4CCOCC4)cc4ncccc34)CC2)nc1C(F)(F)F [Compound 17e, 4-(5-(((1s,4s)-4-(4-methyl-3-(trifluoromethyl)-1H-pyrazol-1-yl)cyclohexyl)oxy)-1,6-naphthyridin-7-yl)morpholine]
1 to 10 nM	10000 to 30000 nM	10000 to 100000 nM	10000 to 100000 nM	–	–	–	Cc1cnn([C@H]2CC[C@@H](Oc3nc(N4CCOCC4)cc4ncccc34)CC2)c1C(F)(F)F [Compound 17f, 4-(5-(((1s,4s)-4-(4-methyl-5-(trifluoromethyl)-1H-pyrazol-1-yl)cyclohexyl)oxy)-1,6-naphthyridin-7-yl)morpholine]
1 to 10 nM	1000 to 10000 nM	10000 to 100000 nM	10000 to 100000 nM	10000 to 100000 nM	–	–	Cc1c(C(F)(F)F)cnn1[C@H]1CC[C@@H](Oc2nc(N3CCOCC3)cc3ncccc23)CC1 [Compound 17h, 4-(5-(((1s,4s)-4-(5-methyl-4-(trifluoromethyl)-1H-pyrazol-1-yl)cyclohexyl)oxy)-1,6-naphthyridin-7-yl)morpholine]
1 to 10 nM	10000 to 30000 nM	1000 to 10000 nM	1000 to 10000 nM	1000 to 10000 nM	–	–	CCOCCOc1cnc(N[C@H]2CC[C@@H](Oc3nc(N4CCOCC4)cc4ncc(Br)cc34)CC2)nc1 [Compound 18b, N-((1s,4s)-4-((3-Bromo-7-morpholino-1,6-naphthyridin-5-yl)oxy)cyclohexyl)-5-(2-ethoxyethoxy)pyrimidin-2-amine]
–	–	–	–	–	0.5 to 1 nM	1000 to 10000 nM	CS(=O)(=O)Nc1cnc2cc(N3CCOCC3)nc(O[C@H]3CC[C@@H](Nc4ncc(C(N)=O)cn4)CC3)c2c1 [LFA028, 2-[[4-[[3-(Methanesulfonamido)-7-morpholino-1,6-naphthyridin-5-yl]oxy]cyclohexyl]amino]pyrimidine-5-carboxamide]
–	–	–	–	–	< 0.5 nM	100 to 1000 nM	CNC(=O)c1cnc(N[C@H]2CC[C@@H](Oc3nc(N4CCOCC4)cc4ncc(NS(C)(=O)=O)cc34)CC2)nc1 [LFA029, 2-[[4-[[3-(Methanesulfonamido)-7-morpholino-1,6-naphthyridin-5-yl]oxy]cyclohexyl]amino]-N-methyl-pyrimidine-5-carboxamide]
–	–	–	–	–	< 0.5 nM	100 to 1000 nM	CN(C)C(=O)c1cnc(N[C@H]2CC[C@@H](Oc3nc(N4CCOCC4)cc4ncc(NS(C)(=O)=O)cc34)CC2)nc1 [LFA030, 2-[[4-[[3-(Methanesulfonamido)-7-morpholino-1,6-naphthyridin-5-yl]oxy]cyclohexyl]amino]-N,N-dimethyl-pyrimidine-5-carboxamide]
–	–	–	–	–	< 0.5 nM	< 100 nM	Nc1cnc2cc(N3CCOCC3)nc(O[C@H]3CC[C@@H](Nc4ncccn4)CC3)c2c1 [LFA107, 7-morpholino-5-[4-(pyrimidin-2-ylamino)cyclohexoxy]-1,6-naphthyridin-3-amine]
